The text below walks through data of patent publication US20080267942A1, “BENZAZEPIN-2(1H)-ONE DERIVATIVES” (Pfizer Limited, priority 2006, published 2008).

The structures appear in SMILES notation.

Experiment [1] addresses T1, bovine beta-2 adrenoceptor (Bos taurus, UniProt Q28044).
T1 construct: expressed in transfected cells; host or cells: CHO cells
Briefly: cAMP assay in CHO cells transfected with the bovine beta-2 adrenoceptor (DiscoveRx Hit Hunter cAMP II). The format is cell-based. As to conditions: CHO cells transfected with bovine beta-2 adrenoceptor, 30 minutes incubation with compound. The essentials: (§1)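 CHO cells expressing porcine or bovine β2 receptor pre-incubated 30 min with 0.5 mM IBMX, then exposed to compound (5×10^−12 to 10^−5 M) for 30 min at 37 °C. cAMP read by enzyme-fragment complementation kit; duplicate samples, EC50 from curve fitting.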
(In general: cAMP levels reflect the balance of adenylyl cyclase and phosphodiesterase activity.)

Experiment [2] addresses T2, porcine beta-2 adrenoceptor (Sus scrofa, UniProt Q28997).
T2 construct: expressed in transfected cells; host or cells: CHO cells
Briefly: cAMP assay in CHO cells transfected with the porcine beta-2 adrenoceptor (DiscoveRx Hit Hunter cAMP II). As to conditions: CHO cells transfected with porcine beta-2 adrenoceptor, 30 minutes incubation with compound. The format is cell-based. The essentials: as §1

What is called EC50 is the concentration giving half of the maximal effect.

T1 sequence (Q28044 whole entry): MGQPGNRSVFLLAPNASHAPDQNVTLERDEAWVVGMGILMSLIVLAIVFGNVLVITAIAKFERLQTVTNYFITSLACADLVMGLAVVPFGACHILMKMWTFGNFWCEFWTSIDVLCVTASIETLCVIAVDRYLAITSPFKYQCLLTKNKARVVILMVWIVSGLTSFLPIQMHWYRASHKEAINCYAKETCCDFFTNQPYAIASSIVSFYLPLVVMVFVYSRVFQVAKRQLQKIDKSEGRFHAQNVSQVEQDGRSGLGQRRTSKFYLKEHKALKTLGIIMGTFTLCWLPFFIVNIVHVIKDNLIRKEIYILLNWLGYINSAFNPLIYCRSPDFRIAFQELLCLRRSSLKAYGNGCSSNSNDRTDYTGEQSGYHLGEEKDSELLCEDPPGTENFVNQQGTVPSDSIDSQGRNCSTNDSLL
T2 sequence (Q28997 whole entry): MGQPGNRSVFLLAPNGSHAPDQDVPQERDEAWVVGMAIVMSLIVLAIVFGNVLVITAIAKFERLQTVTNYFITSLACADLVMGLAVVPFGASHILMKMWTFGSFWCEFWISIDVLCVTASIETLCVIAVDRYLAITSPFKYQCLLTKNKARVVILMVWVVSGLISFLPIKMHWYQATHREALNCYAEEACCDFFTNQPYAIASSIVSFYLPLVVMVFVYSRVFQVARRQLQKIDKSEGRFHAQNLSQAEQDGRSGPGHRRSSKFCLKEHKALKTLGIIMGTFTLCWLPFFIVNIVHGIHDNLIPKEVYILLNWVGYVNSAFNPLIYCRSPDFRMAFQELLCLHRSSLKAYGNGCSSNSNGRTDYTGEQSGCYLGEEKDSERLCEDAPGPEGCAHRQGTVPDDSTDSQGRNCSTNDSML

Consider `CC(CCc1cccc2cc[nH]c12)N[C@@H]1CCn2c(=O)[nH]c3cccc(c32)[C@H]1O` (single isomer, unassigned) [Example 38c, 7-Hydroxy-6-{[3-(1H-indol-7-yl)-1-methylpropyl]amino}-4,5,6,7-tetrahydroimidazo[4,5,1-jk][1]benzazepin-2(1H)-one], for which the EC50 in experiment [1] amounted to 137 nM; in experiment [2] it was 174 nM.

As to `CC(CCc1cccnc1N)N[C@@H]1CCn2c(=O)[nH]c3cccc(c32)[C@H]1O` (single isomer, unassigned) [Example 44], the figures for the concentration giving a half-maximal response (EC50) in experiment [1] and in experiment [2] were 1.3 nM and 1.8 nM, respectively.

On to `CC(CCc1cncc(N)c1)N[C@@H]1CCn2c(=O)[nH]c3cccc(c32)[C@H]1O` (single isomer, unassigned) [Example 45], for which the values for the EC50 in experiment [1] and in experiment [2] were 1.4 nM and 1.1 nM, respectively.

As for `CC(CCc1ccc(N)nc1)N[C@@H]1CCn2c(=O)[nH]c3cccc(c32)[C@H]1O` (single isomer, unassigned) [Example 46], the EC50 in experiment [1] was 3 nM; in experiment [2] it was 2.8 nM.

`CC(CCc1cnsc1)N[C@@H]1CCn2c(=O)[nH]c3cccc(c32)[C@H]1O` (single isomer, unassigned) [Example 47]: the concentration giving a half-maximal response (EC50) in experiment [1] was 0.6 nM; in experiment [2] it was 0.9 nM.

On to `Cc1nn(C)c(C)c1CCC(C)N[C@@H]1CCn2c(=O)[nH]c3cccc(c32)[C@H]1O` (single isomer, unassigned) [Example 48], for which the EC50 in experiment [1] is 3.4 nM; in experiment [2], 3.1 nM.

With `CC(CCc1cncs1)N[C@@H]1CCn2c(=O)[nH]c3cccc(c32)[C@H]1O` (single isomer, unassigned) [Example 49], the 50% effective concentration (EC50) in experiment [1] came to 4.7 nM; in experiment [2], 6.4 nM.

In the case of `CC(CCn1cnc2ccccc21)N[C@@H]1CCn2c(=O)[nH]c3cccc(c32)[C@H]1O` (single isomer, unassigned) [Example 51], the EC50 in experiment [1] amounted to 0.6 nM; in experiment [2], 0.9 nM.

As to `CC(CCc1cc(Br)no1)N[C@@H]1CCn2c(=O)[nH]c3cccc(c32)[C@H]1O` (single isomer, unassigned) [Example 52], the half-maximal effective concentration (EC50) in experiment [1] is 1.2 nM; in experiment [2], 1.3 nM.

Take `Cc1[nH]c2ccc(F)cc2c1CCC(C)N[C@@H]1CCn2c(=O)[nH]c3cccc(c32)[C@H]1O` (single isomer, unassigned) [Example 54]: the EC50 in experiment [1] is 2.7 nM; in experiment [2], 3.1 nM.

With `CC(CCc1c[nH]c2cccnc12)N[C@@H]1CCn2c(=O)[nH]c3cccc(c32)[C@H]1O` (single isomer, unassigned) [Example 55], the EC50 in experiment [1] is 4.4 nM; in experiment [2], 9.9 nM.

Turning to `CC(CCc1cnn(C)c1)N[C@@H]1CCn2c(=O)[nH]c3cccc(c32)[C@H]1O` (single isomer, unassigned) [Example 56], the values for the EC50 in experiment [1] and in experiment [2] were 5.2 nM and 2.7 nM, respectively.

Consider `CC(CCc1c[nH]c2cnccc12)N[C@@H]1CCn2c(=O)[nH]c3cccc(c32)[C@H]1O` (single isomer, unassigned) [Example 57], for which the EC50 in experiment [1] is 5.7 nM; in experiment [2], 13 nM.

Take `CC(CCc1n[nH]c2ccccc12)N[C@@H]1CCn2c(=O)[nH]c3cccc(c32)[C@H]1O` (single isomer, unassigned) [Example 58]: the EC50 was 8.3 nM in experiment [1] and 33 nM in experiment [2].

Turning to `Cc1nn(C)cc1CCC(C)N[C@@H]1CCn2c(=O)[nH]c3cccc(c32)[C@H]1O` (single isomer, unassigned) [Example 59], the half-maximal effective concentration (EC50) in experiment [1] was 20 nM; in experiment [2], 17 nM.

Turning to `CC(CCc1c[nH]c2cc(C#N)ccc12)N[C@@H]1CCn2c(=O)[nH]c3cccc(c32)[C@H]1O` (single isomer, unassigned) [Example 60], the figures for the half-maximal effective concentration (EC50) in experiment [1] and in experiment [2] were 23 nM and 13 nM, respectively.

In the case of `CC(CCn1cncn1)N[C@@H]1CCn2c(=O)[nH]c3cccc(c32)[C@H]1O` (single isomer, unassigned) [Example 61], the EC50 in experiment [1] was determined as 28 nM; in experiment [2] it was 18 nM.

With `CC(CCc1c[nH]c2ccncc12)N[C@@H]1CCn2c(=O)[nH]c3cccc(c32)[C@H]1O` (single isomer, unassigned) [Example 62], the concentration for a half-maximal effect (EC50) in experiment [1] came to 35 nM; in experiment [2], 28 nM.

With `Cc1cc(CCC(C)N[C@@H]2CCn3c(=O)[nH]c4cccc(c43)[C@H]2O)ccn1` (single isomer, unassigned) [Example 63], the values for the EC50 in experiment [1] and in experiment [2] were 81 nM and 25 nM, respectively.

Consider `Cc1cc(C)n(CCC(C)N[C@@H]2CCn3c(=O)[nH]c4cccc(c43)[C@H]2O)n1` (single isomer, unassigned) [Example 64], for which the concentration for a half-maximal effect (EC50) in experiment [1] was 169 nM; in experiment [2], 188 nM.

Consider `C[C@H](CCc1c[nH]c2ccccc12)N[C@@H]1CCn2c(=O)[nH]c3cccc(c32)[C@H]1O` [Example 4e, 7-Hydroxy-6-{[3-(1H-indol-3-yl)-1-methylpropyl]amino}-4,5,6,7-tetrahydroimidazo[4,5,1-jk][1]benzazepin-2(1H)-one], for which the values for the EC50 in experiment [1] and in experiment [2] were 1.1 nM and 3.7 nM, respectively.

For `C[C@H](CCc1c[nH]c2ccccc12)N[C@@H]1CCn2c(=O)[nH]c3cccc(c32)[C@H]1O` [Example 4f, 7-Hydroxy-6-{[3-(1H-indol-3-yl)-1-methylpropyl]amino}-4,5,6,7-tetrahydroimidazo[4,5,1-jk][1]benzazepin-2(1H)-one], the EC50 in experiment [1] is 1.7 nM; in experiment [2] it was 2.5 nM.

Regarding `CNc1nc(CC(C)NC2CCn3c(=O)[nH]c4cccc(c43)C2O)ns1` (centres unmarked) [Example 10, 7-Hydroxy-6-({1-methyl-2-[5-(methylamino)-1,2,4-thiadiazol-3-yl]ethyl}amino)-4,5,6,7-tetrahydroimidazo[4,5,1-jk][1]benzazepin-2(1H)-one], the half-maximal effective concentration (EC50) in experiment [1] is 497 nM; in experiment [2], 399 nM.

Consider `CC(Cc1ccco1)NC1CCn2c(=O)[nH]c3cccc(c32)C1O` (centres unmarked) [Example 11, 6-{[2-(2-Furyl)-1-methylethyl]amino}-7-hydroxy-4,5,6,7-tetrahydroimidazo[4,5,1-jk][1]benzazepin-2(1H)-one], for which the EC50 was determined as 108 nM in experiment [1] and 64 nM in experiment [2].

For the compound `CC(CCc1nc2ccccc2[nH]1)NC1CCn2c(=O)[nH]c3cccc(c32)C1O` (centres unmarked) [Example 12, 6-{[3-(1H-Benzimidazol-2-yl)-1-methylpropyl]amino}-7-hydroxy-4,5,6,7-tetrahydroimidazo[4,5,1-jk][1]benzazepin-2(1H)-one], the 50% effective concentration (EC50) is 34 nM in experiment [1] and 53 nM in experiment [2].

On to `CC(CCc1ccccn1)NC1CCn2c(=O)[nH]c3cccc(c32)C1O` (centres unmarked) [Example 13, 7-Hydroxy-6-[(1-methyl-3-pyridin-2-ylpropyl)amino]-4,5,6,7-tetrahydroimidazo[4,5,1-jk][1]benzazepin-2(1H)-one], for which the EC50 in experiment [1] was 356 nM; in experiment [2], 184 nM.

With `CC(CCc1cn(C)c2ccccc12)NC1CCn2c(=O)[nH]c3cccc(c32)C1O` (centres unmarked) [Example 14a, 7-Hydroxy-6-{[1-methyl-3-(1-methyl-1H-indol-3-yl)propyl]amino}-4,5,6,7-tetrahydroimidazo[4,5,1-jk][1]benzazepin-2(1H)-one], the half-maximal effective concentration (EC50) in experiment [1] was found to be 18 nM; in experiment [2] it was 26 nM.

As to `CC(CCn1cccn1)NC1CCn2c(=O)[nH]c3cccc(c32)C1O` (centres unmarked) [Example 15, 7-Hydroxy-6-{[1-methyl-3-(1H-pyrazol-1-yl)propyl]amino}-4,5,6,7-tetrahydroimidazo[4,5,1-jk][1]benzazepin-2(1H)-one], the EC50 in experiment [1] came to 161 nM; in experiment [2], 98 nM.

With `O=c1[nH]c2cccc3c2n1CCC(NCCCc1c[nH]c2ccccc12)C3O` (centres unmarked) [Example 19, 7-Hydroxy-6-{[3-(1H-indol-3-yl)propyl]amino}-4,5,6,7-tetrahydroimidazo[4,5,1-jk][1]benzazeopin-2(1H)-one], the EC50 in experiment [1] was determined as 50 nM; in experiment [2], 65 nM.

With `CC(CCc1nccs1)NC1CCn2c(=O)[nH]c3cccc(c32)C1O` (centres unmarked) [Example 24a, 7-Hydroxy-6-{[1-methyl-3-(1,3-thiazol-2-yl)propyl]amino}-4,5,6,7-tetrahydroimidazo[4,5,1-jk][1]benzazepin-2(1H)-one], the concentration giving a half-maximal response (EC50) in experiment [1] was 409 nM; in experiment [2], 464 nM.

As to `CC(CCc1c[nH]c2ccncc12)NC1CCn2c(=O)[nH]c3cccc(c32)C1O` (centres unmarked) [Example 31a, 7-Hydroxy-6-{[1-methyl-3-(1H-pyrrolo[3,2-c]pyridin-3-yl)propyl]amino}-4,5,6,7-tetrahydroimidazo[4,5,1-jk][1]benzazepin-2(1H)-one], the half-maximal effective concentration (EC50) in experiment [1] is 197 nM; in experiment [2], 146 nM.

As to `CC(CCc1c[nH]c2cnccc12)NC1CCn2c(=O)[nH]c3cccc(c32)C1O` (centres unmarked) [Example 32a, 7-Hydroxy-6-{[1-methyl-3-(1H-pyrrolo[2,3-c]pyridin-3-yl)propyl]amino}-4,5,6,7-tetrahydroimidazo[4,5,1-jk][1]benzazepin-2(1H)-one], the half-maximal effective concentration (EC50) in experiment [1] turned out to be 52 nM; in experiment [2], 92 nM.

With `CC(CCc1ccc[nH]c1=O)NC1CCn2c(=O)[nH]c3cccc(c32)C1O` (centres unmarked) [Example 36, 7-Hydroxy-6-{[1-methyl-3-(2-oxo-1,2-dihydropyridin-3-yl)propyl]amino}-4,5,6,7-tetrahydroimidazo[4,5,1-jk][1]benzazepin-2(1H)-one], the EC50 in experiment [1] was found to be 59 nM; in experiment [2], 56 nM.

With `Cc1c(CC[C@@H](C)N[C@@H]2CCn3c(=O)[nH]c4cccc(c43)[C@H]2O)cnn1C` [Example 53, (6R,7R)-6-{[(1R)-3-(1,5-Dimethyl-1H-pyrazol-4-yl)-1-methylpropyl]amino}-7-hydroxy-4,5,6,7-tetrahydroimidazo[4,5,1-jk][1]benzazepin-2(1H)-one], the concentration giving a half-maximal response (EC50) was 2 nM in experiment [1] and 2.8 nM in experiment [2].
